Data taken from patent US20230183640A1, “METABOLIC INHIBITORS WITH EFFICACY FOR INHIBITING SULFIDE PRODUCTION IN HARSH ENVIRONMENTS” (MC (US) 3 LLC, priority 2020, published 2023).

Key:
[1] = test system: Desulfovibrio alaskensis 14563; test: H2S and Log (Growth) efficacy against SRB, 96-Well Plate Method; type: cell-based
Protocol: A lyophilized Desulfovibrio alaskensis 14563, Desulfovibrio longus 51456, and Desulfovibrio gabonensis 700201 pure cultures received from ATCC were resuspended individually in 500 ul of MB 1250. Aseptically, the content was transferred to a 5-mL tube of MB1250 medium. The cultures were incubated in an anaerobic chamber at 30° C. for 72 hrs. Subsequently, an individual stock culture with a final concentration of 25% glycerol were prepared by adding equal volumes of culture and 50% glycerol. 1 ml of the cultures were then transferred to 2-ml cryogenic vials and stored at −80° C. The purity of the stock cultures was evaluated through PCR, by amplifying the 16S rDNA region, and thus, it was verified that the original ATCC sample was a pure culture. 48-hour cultures of ATCC Desulfovibrio alaskensis 14563, Desulfovibrio longus 51456, and Desulfovibrio gabonensis 700201 were prepared in an anaerobic chamber. Each culture was prepared as a 1:10 culture by taking 1 milliliter (mL) of a pure culture and inoculating 9 milliliters (mL) of fresh MB1250 media. The Desulfovibrio alaskensis 14563 and Desulfovibrio gabonensis 700201 were all grown at 30° C. and the Desulfovibrio longus 51456 culture was grown at 35° C.
After the 48-hour incubation, 600 microliters (μL) were taken from each culture and optical density (OD) was measured using a Thermofisher Spectronic 200 Spectrophotometer at 600 nm. Each culture was diluted to 0.05 OD600 in fresh MB1250 media and added to the 96 well plates. Edge wells were not used due to their inherent variability and evaporation of the media. Each of the components were added at their respective concentrations for a final volume of 500 μL per well. In Table 3, 6 and 7, the concentrations of the compound used for the experiments are listed. Each experiment was done with at least three replicates for different treatments and non-treatment controls. […] Plates were then sealed with a titer-top and placed into anaerobic boxes and incubated in an anaerobic incubator at 30° C.
At each time point, sulfide samples were taken, and enumeration plates were made. Enumeration plates were made to determine the log growth in each dosed sample. For this process, enumeration plates were prepared by adding 180 μL fresh media MB1250 containing 0.01 wt % ferrous ammonium sulfate. 20 μL was taken from each well of the challenge plates and transferred to the enumeration plates using a 20-200 μL multichannel pipette. Enumeration plates were mixed three times using the multichannel pipette and serial diluted down the plate tenfold (20 μL into 180 μL). This serial dilution process was repeated for all challenge plate rows giving a total of 6 enumeration plates.
After 7 days these enumeration plates were read. The ferrous ammonium sulfate in each plate would be converted to iron sulfide, changing wells with SRB growth from clear to black. By counting the number of black wells in a row, the log growth from the original well in the challenge plate can be determined.
To determine hydrogen sulfide production in each sample, sulfide samples were also taken from each challenge plate. From each well, 9 μL were taken and added to 60 μL of 2% zinc acetate with 0.02% acetic acid. Then, 180 μL of milliQ water was added. 60 μL of stock solution 1 containing 64% sulfuric acid, <1% Dimethyl-4-phenylenediamine (DMPD), water to 100% was added to each well on the plates. This was followed by 3 μL of stock solution 3 containing 50% Iron (III) chloride. All chemicals are ordered from Fisher Scientific and used as received. These were mixed three times and read after 15 minutes. The plates were read at 670 nm using a Biotek microplate reader. Absorbance readings were converted to mM using a standard curve and this was converted to parts per million using the molar mass of sulfur. The standard curves were made using sodium sulfide nonahydrate solutions to give final solutions of 0, 0.125, 0.25 0.5, 1.0, and 1.5 ppm.

[2] = test system: sulfate reducing bacteria; test: Efficacy in inhibiting H2S production from sulfate reducing bacteria; type: cell-based
Protocol: To understand the hydrogen sulfide inhibition efficacy of the N-hydroxycarboxamide compounds of the present invention, several compounds were tested. Some compounds that can be used in this H2S inhibiting composition are disclosed in Table 2. For the testing procedures, the compounds were dissolved in DMSO, resulting in a stock solution of about 8000-100000 ppm, which was subsequently diluted in 96-well plates or 10 mL serum vials containing media and selected culture to give varying concentrations from 0.09 to 1000 ppm of the compounds in final solution for efficacy testing.
Strains of commonly found bacteria were used for testing the efficacy of the compounds, viz. Desulfovibrio alaskensis, Desulfovibrio longus and Desulfovibrio gabonensis. Media for the cultures was also prepared by using a standard method. The cultures were aseptically used and incubated under anaerobic conditions. Two well established methods were used for testing various compounds:
The compounds C1, C12, C14, C15 and C16 were tested individually to understand each of their efficacies in inhibiting the H2S production from sulfate reducing bacteria, under standard temperature and pressure conditions. The efficacy of compounds C14 and C15 against hydrogen sulfide production are disclosed in Example 1, Tables 6 and 7.

Question: Which results are given for O=C(NO)c1ccccc1 [C15]?
Answer: H2S ([1]; Table 6 run, 2 days, 7.615 PPM): 103.6 PPM; Log (Growth) ([1]; Table 6 run, 2 days, 7.615 PPM): 7.7; H2S ([1]; Table 6 run, 2 days, 15.75 PPM): 54.7 PPM; Log (Growth) ([1]; Table 6 run, 2 days, 15.75 PPM): 7.7; H2S ([1]; Table 6 run, 2 days, 31.25 PPM): 54.4 PPM; Log (Growth) ([1]; Table 6 run, 2 days, 31.25 PPM): 7.0; H2S ([1]; Table 6 run, 2 days, 125 PPM): 130.2 PPM; Log (Growth) ([1]; Table 6 run, 2 days, 125 PPM): 7.3; H2S ([1]; Table 6 run, 2 days, 500 PPM): 155.7 PPM; Log (Growth) ([1]; Table 6 run, 2 days, 500 PPM): 7.3; H2S ([1]; Table 6 run, 2 days, 1000 PPM): 130.7 PPM; Log (Growth) ([1]; Table 6 run, 2 days, 1000 PPM): 8.0; H2S ([1]; Table 6 run, 5 days, 7.615 PPM): 35.2 PPM; Log (Growth) ([1]; Table 6 run, 5 days, 7.615 PPM): 8.0; H2S ([1]; Table 6 run, 5 days, 15.75 PPM): 42.7 PPM; Log (Growth) ([1]; Table 6 run, 5 days, 15.75 PPM): 7.3; H2S ([1]; Table 6 run, 5 days, 31.25 PPM): 26.3 PPM; Log (Growth) ([1]; Table 6 run, 5 days, 31.25 PPM): 7.7; H2S ([1]; Table 6 run, 5 days, 125 PPM): 55.5 PPM; Log (Growth) ([1]; Table 6 run, 5 days, 125 PPM): 7.0; H2S ([1]; Table 6 run, 5 days, 500 PPM): 31.8 PPM; Log (Growth) ([1]; Table 6 run, 5 days, 500 PPM): 7.0; H2S ([1]; Table 6 run, 5 days, 1000 PPM): 73.3 PPM; Log (Growth) ([1]; Table 6 run, 5 days, 1000 PPM): 8.0; activity in reducing H2S production ([2]; Tables 6 and 7): did not show significant activity

Question: For O=C(CCCN1C(=O)c2cccc3cccc(c23)C1=O)NO [C12], which H2S ([1]; Table 6 run, 2 days, 7.615 PPM) is on record?
Answer: Its H2S is 77.6 PPM.

Question: What about the “Log (Growth)” value ([1]; Table 6 run, 2 days, 7.615 PPM) of the same compound?
Answer: Its value is 7.

Question: What about the H2S ([1]; Table 6 run, 2 days, 15.75 PPM) of the same compound?
Answer: The H2S was 115.3 PPM.

Question: What about the “Log (Growth)” value ([1]; Table 6 run, 2 days, 15.75 PPM) of the same compound?
Answer: The value was 7.5.

Question: What about the H2S ([1]; Table 6 run, 2 days, 31.25 PPM) of the same compound?
Answer: Its H2S is 90.1 PPM.

Question: And the “Log (Growth)” value ([1]; Table 6 run, 2 days, 31.25 PPM)?
Answer: The value was 7.0.

Question: And the H2S ([1]; Table 6 run, 2 days, 125 PPM)?
Answer: Its H2S is 91.4 PPM.

Question: What about the “Log (Growth)” value ([1]; Table 6 run, 2 days, 125 PPM) of the same compound?
Answer: The value was 7.0.

Question: What about the H2S ([1]; Table 6 run, 2 days, 500 PPM) of the same compound?
Answer: Its H2S is 8.7 PPM.

Question: And the “Log (Growth)” value ([1]; Table 6 run, 2 days, 500 PPM)?
Answer: Its value is 0.0.

Question: What about the H2S ([1]; Table 6 run, 2 days, 1000 PPM) of the same compound?
Answer: Its H2S is 5.4 PPM.

Question: What about the “Log (Growth)” value ([1]; Table 6 run, 2 days, 1000 PPM) of the same compound?
Answer: Its value is 0.0.

Question: And the H2S ([1]; Table 6 run, 5 days, 7.615 PPM)?
Answer: The H2S was 17.5 PPM.

Question: What about the “Log (Growth)” value ([1]; Table 6 run, 5 days, 7.615 PPM) of the same compound?
Answer: Its value is 8.0.

Question: And the H2S ([1]; Table 6 run, 5 days, 15.75 PPM)?
Answer: The H2S was 26.7 PPM.

Question: And the “Log (Growth)” value ([1]; Table 6 run, 5 days, 15.75 PPM)?
Answer: Its value is 8.0.

Question: What about the H2S ([1]; Table 6 run, 5 days, 31.25 PPM) of the same compound?
Answer: Its H2S is 42.5 PPM.

Question: And the “Log (Growth)” value ([1]; Table 6 run, 5 days, 31.25 PPM)?
Answer: The value was 7.0.

Question: What about the H2S ([1]; Table 6 run, 5 days, 125 PPM) of the same compound?
Answer: The H2S was 21.3 PPM.

Question: And the “Log (Growth)” value ([1]; Table 6 run, 5 days, 125 PPM)?
Answer: The value was 3.0.

Question: And the H2S ([1]; Table 6 run, 5 days, 500 PPM)?
Answer: Its H2S is 6.1 PPM.

Question: What about the “Log (Growth)” value ([1]; Table 6 run, 5 days, 500 PPM) of the same compound?
Answer: The value was 0.0.

Question: What about the H2S ([1]; Table 6 run, 5 days, 1000 PPM) of the same compound?
Answer: Its H2S is 4.8 PPM.

Question: What about the “Log (Growth)” value ([1]; Table 6 run, 5 days, 1000 PPM) of the same compound?
Answer: The value was 0.0.

Question: What about the H2S ([1]; Table 7 run, 2 days, 7.615 PPM) of the same compound?
Answer: The H2S was 67.5 PPM.

Question: And the “Log (Growth)” value ([1]; Table 7 run, 2 days, 7.615 PPM)?
Answer: Its value is 8.0.

Question: And the H2S ([1]; Table 7 run, 2 days, 15.75 PPM)?
Answer: The H2S was 43.7 PPM.

Question: And the “Log (Growth)” value ([1]; Table 7 run, 2 days, 15.75 PPM)?
Answer: Its value is 7.3.

Question: What about the H2S ([1]; Table 7 run, 2 days, 31.25 PPM) of the same compound?
Answer: Its H2S is 18.2 PPM.

Question: And the “Log (Growth)” value ([1]; Table 7 run, 2 days, 31.25 PPM)?
Answer: Its value is 7.5.

Question: What about the H2S ([1]; Table 7 run, 2 days, 125 PPM) of the same compound?
Answer: The H2S was 12.2 PPM.

Question: And the “Log (Growth)” value ([1]; Table 7 run, 2 days, 125 PPM)?
Answer: The value was 5.0.

Question: And the H2S ([1]; Table 7 run, 2 days, 500 PPM)?
Answer: Its H2S is 2.2 PPM.

Question: And the “Log (Growth)” value ([1]; Table 7 run, 2 days, 500 PPM)?
Answer: Its value is 3.0.

Question: What about the H2S ([1]; Table 7 run, 2 days, 1000 PPM) of the same compound?
Answer: Its H2S is 1.8 PPM.

Question: And the “Log (Growth)” value ([1]; Table 7 run, 2 days, 1000 PPM)?
Answer: Its value is 2.5.

Question: What about the H2S ([1]; Table 7 run, 5 days, 7.615 PPM) of the same compound?
Answer: The H2S was 30.6 PPM.

Question: And the “Log (Growth)” value ([1]; Table 7 run, 5 days, 7.615 PPM)?
Answer: The value was 7.3.

Question: And the H2S ([1]; Table 7 run, 5 days, 15.75 PPM)?
Answer: The H2S was 34.4 PPM.

Question: What about the “Log (Growth)” value ([1]; Table 7 run, 5 days, 15.75 PPM) of the same compound?
Answer: The value was 6.7.

Question: What about the H2S ([1]; Table 7 run, 5 days, 31.25 PPM) of the same compound?
Answer: Its H2S is 15.1 PPM.

Question: And the “Log (Growth)” value ([1]; Table 7 run, 5 days, 31.25 PPM)?
Answer: Its value is 5.5.

Question: And the H2S ([1]; Table 7 run, 5 days, 125 PPM)?
Answer: The H2S was 6.2 PPM.

Question: What about the “Log (Growth)” value ([1]; Table 7 run, 5 days, 125 PPM) of the same compound?
Answer: The value was 5.0.

Question: And the H2S ([1]; Table 7 run, 5 days, 500 PPM)?
Answer: The H2S was 1.9 PPM.

Question: And the “Log (Growth)” value ([1]; Table 7 run, 5 days, 500 PPM)?
Answer: Its value is 0.0.

Question: What about the H2S ([1]; Table 7 run, 5 days, 1000 PPM) of the same compound?
Answer: The H2S was 2.0 PPM.

Question: And the “Log (Growth)” value ([1]; Table 7 run, 5 days, 1000 PPM)?
Answer: The value was 0.0.

Question: And the “efficacy for inhibiting hydrogen sulfide production” value ([2]; anaerobic conditions)?
Answer: Its value is “high efficacy”.
